The values that follow come from ChEMBL document CHEMBL1667821, “Synthesis and galectin-binding activities of mercaptododecyl glycosides containing a terminal β-galactosyl group” (Bioorg Med Chem Lett, 2011).

SMILES strings stand for the structures. pKd: −log10 of the molar value. “And” between values parts separate entries of the source, which are not always exact repeats. Identical values can stand only once. The source made the active and inactive calls. The calls are words filed in the database; no cut-off is given here.

The target of experiment [1] is Galectin-1 (Homo sapiens) (UniProt P09382). In words: Binding affinity to human galectin-1 by surface plasmon resonance method. In general terms: Surface plasmon resonance follows binding to a sensor surface in real time, without labels.
Experiment [2] deals with T1, Galectin-2 (Homo sapiens) (UniProt P05162).
T1 sequence (whole entry): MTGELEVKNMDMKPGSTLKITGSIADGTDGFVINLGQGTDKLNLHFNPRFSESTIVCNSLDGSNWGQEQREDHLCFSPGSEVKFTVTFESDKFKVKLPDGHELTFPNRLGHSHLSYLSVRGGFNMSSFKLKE
In words: Binding affinity to human galectin-2 by surface plasmon resonance method.

Another experiment addresses Galectin-3 (Homo sapiens, UniProt P17931). Briefly: Binding affinity to human galectin-3 by surface plasmon resonance method.
For experiment [3], the target named is T2, Galectin-4 (Homo sapiens) (UniProt P56470).
T2 sequence (whole entry): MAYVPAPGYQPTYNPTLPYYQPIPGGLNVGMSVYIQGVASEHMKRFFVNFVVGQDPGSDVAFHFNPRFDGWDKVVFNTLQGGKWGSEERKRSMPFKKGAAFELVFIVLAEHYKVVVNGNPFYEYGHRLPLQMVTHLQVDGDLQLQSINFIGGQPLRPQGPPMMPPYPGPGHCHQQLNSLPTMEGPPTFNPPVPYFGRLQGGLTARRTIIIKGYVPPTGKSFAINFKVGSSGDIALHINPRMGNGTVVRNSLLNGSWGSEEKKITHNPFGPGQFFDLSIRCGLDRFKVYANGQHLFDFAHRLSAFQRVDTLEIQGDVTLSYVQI
In words: Binding affinity to human galectin-4 by surface plasmon resonance method.

Experiment [4] deals with Galectin-7 (Homo sapiens) (UniProt P47929). Briefly: Binding affinity to human galectin-7 by surface plasmon resonance method.
Experiment [5] deals with T3, Galectin-8 (Homo sapiens) (UniProt O00214).
T3 sequence (whole entry): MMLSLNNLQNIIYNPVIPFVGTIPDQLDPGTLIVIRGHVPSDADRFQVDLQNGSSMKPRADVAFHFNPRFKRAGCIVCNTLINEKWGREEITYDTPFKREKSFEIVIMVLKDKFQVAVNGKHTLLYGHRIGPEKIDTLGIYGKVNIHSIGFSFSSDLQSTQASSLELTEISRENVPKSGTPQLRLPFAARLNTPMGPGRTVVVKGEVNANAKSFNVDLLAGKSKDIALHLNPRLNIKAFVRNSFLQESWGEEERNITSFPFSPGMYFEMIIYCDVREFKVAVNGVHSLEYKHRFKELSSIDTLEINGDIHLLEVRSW
Briefly: Binding affinity to human galectin-8 by surface plasmon resonance method.

For experiment [6], the target named is T2, Galectin-4 (Homo sapiens). In words: (§1) Binding affinity to human galectin-4 component 1 by surface plasmon resonance method.
For experiment [7], the target named is T4, Galectin-4 (Homo sapiens, UniProt P56470).
T4 sequence (P56470 whole entry): T2 sequence (whole entry)
The experiment is described as §1.

In experiment [8] the target is T2, Galectin-4 (Homo sapiens). Briefly: (§2) Binding affinity to human galectin-4 component 2 by surface plasmon resonance method.
Experiment [9] has as its target T4, Galectin-4. The experiment is described as §2.
Experiment [10] addresses T3, Galectin-8 (Homo sapiens). Briefly: (§3) Binding affinity to human galectin-8 component 1 by surface plasmon resonance method.
Experiment [11] has as its target T5, Galectin-8 (Homo sapiens, UniProt O00214).
T5 sequence (O00214 whole entry): T3 sequence (whole entry)
Described as §3.

Experiment [12] has as its target T3, Galectin-8 (Homo sapiens). Briefly: (§4) Binding affinity to human galectin-8 component 2 by surface plasmon resonance method.
In experiment [13] the target is T5, Galectin-8. The description is as §4.

Sequence of Galectin-1 (Homo sapiens) (P09382 whole entry): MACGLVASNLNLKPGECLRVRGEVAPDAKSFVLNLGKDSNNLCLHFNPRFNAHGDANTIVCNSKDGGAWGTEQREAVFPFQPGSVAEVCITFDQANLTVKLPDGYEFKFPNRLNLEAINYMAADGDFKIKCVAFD
Sequence of Galectin-3 (P17931 whole entry): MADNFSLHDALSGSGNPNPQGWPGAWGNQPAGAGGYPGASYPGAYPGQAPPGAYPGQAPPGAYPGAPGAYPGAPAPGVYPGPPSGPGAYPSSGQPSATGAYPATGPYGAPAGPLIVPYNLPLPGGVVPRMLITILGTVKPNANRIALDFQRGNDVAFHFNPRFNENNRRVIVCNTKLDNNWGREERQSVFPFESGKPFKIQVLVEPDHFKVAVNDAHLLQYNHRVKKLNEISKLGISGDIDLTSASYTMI
Sequence of Galectin-7 (Homo sapiens) (P47929 whole entry): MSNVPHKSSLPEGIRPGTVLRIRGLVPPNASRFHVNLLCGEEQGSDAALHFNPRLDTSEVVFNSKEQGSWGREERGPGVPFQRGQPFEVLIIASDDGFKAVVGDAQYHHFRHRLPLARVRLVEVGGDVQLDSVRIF

Take `OC[C@H]1O[C@@H](O[C@H]2C=C[C@@H](OCCCCCCCCCCCCS)O[C@@H]2CO)[C@H](O)[C@@H](O)[C@H]1O`: the Activity in experiment [1] was determined as 25.1 a.u; in experiment [2], 13.4 a.u; on Galectin-3, 5.1 a.u. Also, the result in experiment [3] and in experiment [5] was Active. Further, in experiment [4], the outcome was inactive.

By pKd is commonly meant the Kd on a negative log10 scale, so that one unit is a factor of ten. Read a high pKd as a low Kd. Regarding `OC[C@H]1O[C@@H](O[C@H]2[C@H](O)C[C@@H](OCCCCCCCCCCCCS)O[C@@H]2CO)[C@H](O)[C@@H](O)[C@H]1O`, the Activity in [1] was determined as 17.8 a.u; in experiment [2] it was 11 a.u; on Galectin-3 it was 135 a.u; in experiment [3] it was 345 a.u; in experiment [5], 74.5 a.u. Besides, the Ka at Galectin-3 was 1900 M⁻¹ s⁻¹; in experiment [6], 4630 M⁻¹ s⁻¹; in experiment [8] it was 65200 M⁻¹ s⁻¹; in experiment [10] it was 18600 M⁻¹ s⁻¹; in [12] it was 35500 M⁻¹ s⁻¹. Besides, the pKd is 5.84 on Galectin-3; 6.52 at Galectin-4 [7]; 7.24 at Galectin-4 [9]; 7.43 at Galectin-8 [11]; 7.51 and 7.50 on Galectin-8 [13]. The Kdiss at Galectin-3 came out at 2.72 ×10⁻³ /s; in experiment [6], 1.41 ×10⁻³ /s; in experiment [8] it was 3.78 ×10⁻³ /s; in [10], 6.85 ×10⁻² /s; in experiment [12], 1.11 ×10⁻¹ /s. Besides, in [4], the result was inactive.

For the compound `OC[C@H]1OC(O[C@H]2[C@H](O)[C@@H](O)[C@H](OCCCCCCCCCCCCS)O[C@@H]2CO)[C@H](O)[C@@H](O)[C@H]1O` (some centres undefined), the Activity in experiment [1] was 9.5 a.u; in [2], 2 a.u; on Galectin-3 it was 82.3 a.u; in [3] it was 457 a.u; in experiment [4], 4.2 a.u; in [5] it was 368 a.u. Further, the Ka on Galectin-3 came out at 1760 M⁻¹ s⁻¹; in experiment [6] it was 13000 M⁻¹ s⁻¹; in experiment [8] it was 172000 M⁻¹ s⁻¹; in experiment [10], 8970 M⁻¹ s⁻¹; in [12], 9.61e+06 M⁻¹ s⁻¹. Further, the pKd was 5.97 at Galectin-3; 6.85 and 6.87 on Galectin-4 [7]; 7.07 at Galectin-4 [9]; 8.80 and 8.81 on Galectin-8 [11]; 7.60 and 7.61 at Galectin-8 [13]. In addition, the Kdiss at Galectin-3 stood at 1.86 ×10⁻³ /s; in experiment [6], 1.76 ×10⁻³ /s; in [8] it was 1.45 ×10⁻² /s; in [10], 1.39 ×10⁻⁵ /s; in experiment [12], 2.37 ×10⁻¹ /s.

On to `CC(=O)N[C@H]1[C@@H](OCCCCCCCCCCCCS)O[C@H](CO)[C@@H](O[C@@H]2O[C@H](CO)[C@H](O)[C@H](O)[C@H]2O)[C@@H]1O`, for which the Activity is 4.1 a.u in [1]; 167 a.u on Galectin-3; 462 a.u in experiment [3]; 0.8 a.u in [4]; 163 a.u in experiment [5]. In addition, the result in experiment [2] was inactive. In addition, the Ka on Galectin-3 was 5670 M⁻¹ s⁻¹; in [6], 2330 M⁻¹ s⁻¹; in experiment [8], 111000 M⁻¹ s⁻¹; in experiment [10] it was 9370 M⁻¹ s⁻¹; in experiment [12] it was 48700 M⁻¹ s⁻¹. The pKd on Galectin-3 was 5.66; on Galectin-4 [7], 5.90; on Galectin-4 [9] it was 6.11; at Galectin-8 [11], 9.64 and 9.63. Moreover, the Kdiss at Galectin-3 was found to be 1.25 ×10⁻² /s; in experiment [6], 2.92 ×10⁻³ /s; in [8] it was 8.6 ×10⁻² /s; in experiment [10], 2.18 ×10⁻⁶ /s; in [12] it was 2.39 ×10⁻³ /s.

As for `OC[C@H]1O[C@@H](OCCCCCCCCCCCCS)[C@H](O)[C@@H](O)[C@H]1O`, the Activity was found to be 3.4 a.u in [1], 3.8 a.u in [2] and 34.1 a.u in experiment [5]. Moreover, the result (at Galectin-3; in experiment [4]) was inactive. Further, the result in [3] was Active.
